According to patent US20040266732A1, “Therapeutic agents, methods, and treatments” (priority 2002, published 2004):

Columns and labels:
[1] = test system: NCI-H226 squamous carcinoma; assay: Induced-tumor NOD/SCID mouse model, comparison to cisplatin (Example 8); format: in vivo, NOD/SCID mice
Procedure: (§1) A standard induced-tumor NOD/SCID mouse model was used to perform this investigation, with the mouse model being based on protocols for human xenograft systems developed at the National Cancer Institute. H226 cell cancer tumors were induced in NOD/SCID mice; tumors at sizes approximately 100 mm^3 were treated with 30 mg/kg MT103 or a control containing only vehicle (2.5% DMSO in distilled water) administered in intraperitoneal injections every other day for two weeks.
This experiment provides in vivo test data showing that the MT103 family of compounds are effective anti-cancer agents. […] MT103 was tested at three dose levels (60, 120, and 240 mg/kg). Experiments were performed as described in Example 7, NOD/SCID mice, (NOD.CB17-Prkdcscid/J) except that tumors were treated with: one of three doses of MT103 or Cisplatin or sham for 3 intraperitoneal injections (one every 4 days) in a 2-cycle 56-day test that was extended to another cycle to 86 days, as reflected in FIG. 5. Tumor volumes were measured every other day.

LOX IMVI = assay: NCI 60 cell-line test; format: cell-based, human; conditions: LOX IMVI (Melanoma)
Procedure: (§2) Methodology: The NCI conducted a test of the MT103 drug against 60 human cell lines, with a minimum of five concentrations of MT103 at 10-fold dilutions. A 48 hour continuous drug exposure was used, and a sulforhodamine B (SRB) protein assay was used to estimate cell viability and growth. The human tumor cell lines of the cancer screening panel were grown in RPMI 1640 medium containing 5% fetal bovine serum and 2 mM L-glutamine. Cells were inoculated into 96 well microtiter plates in 100 μL at plating densities ranging from 5,000 to 40,000 cells/well depending on the doubling time of individual cell lines. After cell inoculation, the microtiter plates are incubated at 37° C., 5% CO2, 95% air, and 100% relative humidity for 24 h prior to addition of experimental drugs.
(§3) After 24 h, two plates of each cell line were fixed in situ with TCA, to represent a measurement of the cell population for each cell line at the time of drug addition (Tz). MT103 was solubilized in dimethyl sulfoxide at 400-fold the desired final maximum test concentration and stored frozen prior to use. At the time of drug addition, an aliquot of frozen concentrate was thawed and diluted to twice the desired final maximum test concentration with complete medium containing 50 μg/ml gentamicin. Additional four, 10-fold or ½ log serial dilutions were made to provide a total of five drug concentrations plus control. Aliquots of 100 μl of these different drug dilutions were added to the appropriate microtiter wells already containing 100 μl of medium, resulting in the required final drug concentrations.
(§4) Following drug addition, the plates were incubated for an additional 48 h at 37° C., 5% CO2, 95% air, and 100% relative humidity. For adherent cells, the assay was terminated by the addition of cold TCA. Cells were fixed in situ by the gentle addition of 50 μl of cold 50% (w/v) TCA (final concentration, 10% TCA) and incubated for 60 minutes at 4° C. The supernatant was discarded, and the plates were washed five times with tap water and air dried. Sulforhodamine B (SRB) solution (100 μl) at 0.4% (w/v) in 1% acetic acid was added to each well, and plates were incubated for 10 minutes at room temperature. After staining, unbound dye was removed by washing five times with 1% acetic acid and the plates were air-dried. Bound stain was subsequently solubilized with 10 mM trizma base, and the absorbance was read on an automated plate reader at a wavelength of 515 nm. For suspension cells, the methodology was the same except that the assay was terminated by fixing settled cells at the bottom of the wells by gently adding 50 μl of 80% TCA (final concentration, 16% TCA). Using the seven absorbance measurements (time zero, (Tz), control growth, (C), and test growth in the presence of drug at the five concentration levels (Ti)), the percentage growth was calculated at each of the drug concentrations levels. Percentage growth inhibition was calculated as:
(§5) [(Ti-Tz)/(C-Tz)]×100 for concentrations for which Ti>/=Tz
(§6) [(Ti-Tz)/Tz]×100 for concentrations for which Ti<Tz.
(§7) Three dose response parameters were calculated for each experimental agent. Growth inhibition of 50% (GI50) was calculated from [(Ti-Tz)/(C-Tz)]×100=50, which is the drug concentration resulting in a 50% reduction in the net protein increase (as measured by SRB staining) in control cells during the drug incubation. The drug concentration resulting in total growth inhibition (TGI) was calculated from Ti=Tz. The LC50 (concentration of drug resulting in a 50% reduction in the measured protein at the end of the drug treatment as compared to that at the beginning) indicating a net loss of cells following treatment was calculated from [(Ti-Tz)/Tz]×100=−50. Values were calculated for each of these three parameters if the level of activity is reached; however, if the effect was not reached or was exceeded, the value for that parameter was expressed as greater or less than the maximum or minimum concentration tested.

RPMI-8226 = assay: NCI 60 cell-line test; format: cell-based, human; conditions: RPMI-8226 (Leukemia)
Procedure: as §2, §3, §4, §5, §6, §7

SNB-75 = assay: NCI 60 cell-line test; format: cell-based, human; conditions: SNB-75 (CNS Cancer)
Procedure: as §2, §3, §4, §5, §6, §7

SF-539 = assay: NCI 60 cell-line test; format: cell-based, human; conditions: SF-539 (CNS Cancer)
Procedure: as §2, §3, §4, §5, §6, §7

MDA-MB-231/ATCC = assay: NCI 60 cell-line test; format: cell-based, human; conditions: MDA-MB-231/ATCC (Breast Cancer)
Procedure: as §2, §3, §4, §5, §6, §7

A549/ATCC = assay: NCI 60 cell-line test; format: cell-based, human; conditions: A549/ATCC (Non-Small Cell Lung Cancer)
Procedure: as §2, §3, §4, §5, §6, §7

H226 cell cancer tumors = assay: Induced-tumor NOD/SCID mouse model (Example 7); format: in vivo, NOD/SCID mice; conditions: 30 mg/kg intraperitoneal every other day for two weeks
Procedure: as §1

A549 (an adenocarcinoma) = assay: Induced-tumor NOD/SCID mouse model, A549; format: in vivo, NOD/SCID mice
Procedure: In another experiment, NOD/SCID mice, (NOD.CB17-Prkdcscid/J) were treated over a time course with 60 mg/kg of MT103 or a sham treatment, and a different lung cancer cell line was used, A549 (an adenocarcinoma), instead of NCI-H226 (a squamous carcinoma).

[2] = read-out: LC50 (the source's name)

CC1(C)C2CC[C@@]1(CS(=O)(=O)N(C1CCCCC1)C1CCCCC1)C(O)C2 (some centres unmarked) [MT103]
blood counts and electrolytes ([1]; 120 mg/kg versus control): no differences in blood counts and electrolytes
organ appearance ([1]; 120 mg/kg versus control): no observable differences in organ appearance
improvement compared to cisplatin ([1]; 120 mg/kg, among the range of doses tested): most improvement compared to cisplatin
mean tumor growth ([1]; 60, 120, 240 mg/kg, 3 intraperitoneal injections (one every 4 days) per cycle, p=0.046, FIG. 5): mean tumor growth slowed
effect in comparison to cisplatin ([1]; depending upon the dosages administered (60, 120, 240 mg/kg)): comparable or superior effect
TGI (LOX IMVI): 3.95E−05
IC50 (LOX IMVI; read-out: G150): 19 µM
CC50 (LOX IMVI; [2]): 82.3 µM
TGI (RPMI-8226): 3.68E−05
IC50 (RPMI-8226; read-out: G150): 11.8 µM
CC50 (RPMI-8226; [2]): > 100 µM
LC50 (concentration killing 50% of tumour cells) (SNB-75): > 100 µM
TGI (SNB-75): 8.83E−05
IC50 (SNB-75; read-out: G150): 19.5 µM
TGI (SF-539): >1.00E−04
IC50 (SF-539; read-out: G150): 54.6 µM
CC50 (SF-539; [2]): > 100 µM
TGI (MDA-MB-231/ATCC): 4.71E−05
IC50 (MDA-MB-231/ATCC; read-out: G150): 16.9 µM
CC50 (MDA-MB-231/ATCC; [2]): > 100 µM
TGI (A549/ATCC): >1.00E−04
IC50 (A549/ATCC; read-out: G150): 28.3 µM
CC50 (A549/ATCC; [2]): > 100 µM
toxicity (H226 cell cancer tumors): without any evidence of toxicity
tumor volume (H226 cell cancer tumors; FIG. 3): tumor volume was significantly decreased
mice body weight (H226 cell cancer tumors; FIG. 4): did not have deleterious effect on mice body weight
H226 tumor progression (H226 cell cancer tumors; p=0.038): slowed down H226 tumor progression significantly
onset of tumor growth (A549 (an adenocarcinoma); 60 mg/kg versus sham): delayed onset of tumor growth
tumor size versus control (A549 (an adenocarcinoma); 60 mg/kg, t=30 days): significantly smaller than the control groups
